Test results taken from patent US20090156642A1, “5-Membered heterocyclic compound” (Takeda Pharmaceutical Company Limited, priority 2007, published 2009).
Counter-ions that a name gives are not always drawn.

Molecular target: T1, proton, potassium-adenosine triphosphatase (H+,K+-ATPase) (Sus scrofa, UniProt P19156)
T1 construct: a gastric mucous membrane microsomal fraction was prepared from the stomach of swine
Assay: Proton potassium-adenosine triphosphatase (H+,K+-ATPase) inhibitory activity test
Format: biochemical
Details: swine gastric mucous membrane microsomal fraction, pH 6.5, 37° C., 10 mmol/L potassium chloride
Description: Proton Potassium-Adenosine Triphosphatase (H^+,K^+-ATPase) Inhibitory Activity Test
According to the method [Biochim. Biophys. Acta, 728, 31 (1983)] of Wallmark et al., a gastric mucous membrane microsomal fraction was prepared from the stomach of swine. First, the stomach was removed, washed with tap water, and immersed in 3 mol/L brine, and the surface of the mucous membrane was wiped with a paper towel. The gastric mucous membrane was detached, chopped, and homogenized in a 0.25 mol/L saccharose solution (pH 6.8) containing 1 mmol/L EDTA and 10 mmol/L tris-hydrochloric acid using polytron (Kinematica). The obtained homogenate was centrifuged at 20,000×g for 30 min and the supernatant was centrifuged at 100,000×g for 90 min. The precipitate was suspended in 0.25 mol/L saccharose solution, the suspension was superimposed on a 0.25 mol/L saccharose solution containing 7.5% Ficoll, and centrifuged at 100,000×g for 5 hr. The fraction containing the interface between the both layers was recovered, and centrifugally washed with 0.25 mol/L saccharose solution.
The obtained microsomal fraction was used as a proton, potassium-adenosine triphosphatase standard product.
To 40 μL of a 50 mmol/L HEPES-tris buffer (5 mmol/L magnesium chloride, 10 mmol/L potassium chloride, 10 μmol/L valinomycin, pH=6.5) containing 2.5 μg/mL (based on the protein concentration) of the enzyme standard product was added a test compound (5 μL) dissolved in a 10% aqueous dimethyl sulfoxide solution, and the mixture was incubated at 37° C. for 30 min. The enzyme reaction was started by adding 5 μL of a 2 mmol/L adenosine triphosphate tris salt solution (50 mmol/L HEPES-tris buffer (5 mmol/L magnesium chloride, pH 6.5)). The enzyme reaction was carried out at 37° C. for 20 min, and 15 μL of a malachite green solution (0.12% malachite green solution in sulfuric acid (2.5 mol/L), 7.5% ammonium molybdate and 11% Tween 20 were mixed at a ratio of 100:25:2) was added to quench the reaction. After allowing to stand at room temperature for 15 min, the resulting reaction product of inorganic phosphorus with malachite green was colorimetrically determined at a wavelength of 610 nm. In addition, the amount of the inorganic phosphoric acid in the reaction solution free of potassium chloride was measured in the same manner, which was subtracted from the inorganic phosphoric acid amount in the presence of potassium chloride to determine the proton, potassium-adenosine triphosphatase activity. The inhibitory rate (%) was determined from the activity value of the control and the activity values of various concentrations of the test compound, and the 50% inhibitory concentration (IC50) of the proton, potassium-adenosine triphosphatase was determined.

T1 sequence (P19156 2-1034): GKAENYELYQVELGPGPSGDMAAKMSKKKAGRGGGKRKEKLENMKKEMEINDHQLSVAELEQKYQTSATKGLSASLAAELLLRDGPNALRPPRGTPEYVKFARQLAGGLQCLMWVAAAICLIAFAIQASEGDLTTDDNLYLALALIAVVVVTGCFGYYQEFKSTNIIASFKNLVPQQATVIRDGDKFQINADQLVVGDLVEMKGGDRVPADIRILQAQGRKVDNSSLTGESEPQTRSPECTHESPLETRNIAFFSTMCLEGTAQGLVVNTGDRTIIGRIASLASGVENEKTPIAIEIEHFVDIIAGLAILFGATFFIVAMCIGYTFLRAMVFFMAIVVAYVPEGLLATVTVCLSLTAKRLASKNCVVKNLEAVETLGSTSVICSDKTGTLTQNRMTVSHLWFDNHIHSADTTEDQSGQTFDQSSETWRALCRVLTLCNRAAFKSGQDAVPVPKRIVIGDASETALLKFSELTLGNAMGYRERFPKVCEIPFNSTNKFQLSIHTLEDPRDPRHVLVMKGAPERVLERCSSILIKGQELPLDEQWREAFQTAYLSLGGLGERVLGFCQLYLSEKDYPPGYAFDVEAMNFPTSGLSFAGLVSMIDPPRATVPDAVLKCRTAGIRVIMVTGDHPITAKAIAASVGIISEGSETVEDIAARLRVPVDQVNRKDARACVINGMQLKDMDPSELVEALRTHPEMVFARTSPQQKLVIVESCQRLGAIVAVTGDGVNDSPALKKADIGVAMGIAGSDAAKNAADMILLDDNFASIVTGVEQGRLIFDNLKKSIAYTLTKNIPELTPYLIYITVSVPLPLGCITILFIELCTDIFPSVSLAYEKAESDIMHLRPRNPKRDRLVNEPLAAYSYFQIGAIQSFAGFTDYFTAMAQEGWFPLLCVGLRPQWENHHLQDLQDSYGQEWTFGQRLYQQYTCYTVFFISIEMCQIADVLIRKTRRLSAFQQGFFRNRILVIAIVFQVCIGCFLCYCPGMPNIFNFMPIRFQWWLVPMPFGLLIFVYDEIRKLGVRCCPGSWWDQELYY
T1 sequence (P18434 whole entry partner): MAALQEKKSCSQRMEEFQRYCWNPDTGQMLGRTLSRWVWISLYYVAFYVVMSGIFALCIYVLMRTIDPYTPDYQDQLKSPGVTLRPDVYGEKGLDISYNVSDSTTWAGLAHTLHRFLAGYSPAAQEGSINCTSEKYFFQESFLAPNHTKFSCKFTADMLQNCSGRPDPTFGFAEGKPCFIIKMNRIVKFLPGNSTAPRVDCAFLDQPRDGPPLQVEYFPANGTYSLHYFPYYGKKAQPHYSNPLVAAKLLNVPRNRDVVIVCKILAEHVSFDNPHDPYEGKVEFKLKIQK

| Structure (SMILES) | IC50 [nM] |
| --- | --- |
| CNCc1cc(-c2cccnc2F)c(S(=O)(=O)c2cccnc2)s1 [Example 48, 1-[4-(2-fluoropyridin-3-yl)-5-(pyridin-3-ylsulfonyl)thiophen-2-yl]-N-methylmethanamine] | 240 |
| CNCc1cc(-c2ccccc2F)c(S(=O)(=O)c2ccccc2)s1 [Example 19, 1-[4-(2-fluorophenyl)-5-(phenylsulfonyl)thiophen-2-yl]-N-methylmethanamine hydrochloride] | 88 |
| CNCc1cc(-c2ccccc2F)c(S(=O)(=O)c2cccc(OC)c2)s1 [Example 4, 1-{4-(2-fluorophenyl)-5-[(3-methoxyphenyl)sulfonyl]-2-thienyl}-N-methylmethanamine fumarate] | 64 |
| CNCc1cc(-c2cccnc2F)c(S(=O)(=O)c2ccccc2)s1 [Example 2, 1-[4-(2-fluoropyridin-3-yl)-5-(phenylsulfonyl)-2-thienyl]-N-methylmethanamine hydrochloride] | 32 |
| CNCc1cn(S(=O)(=O)c2cccs2)c(-c2ccccc2F)n1 [Example 18, 1-[2-(2-fluorophenyl)-1-(2-thienylsulfonyl)-1H-imidazol-4-yl]-N-methylmethanamine fumarate] | 64 |
| CNCc1nc(-c2ccccc2F)c(S(=O)(=O)c2cccc(OC)c2)s1 [Example 13, 1-{4-(2-fluorophenyl)-5-[(3-methoxyphenyl)sulfonyl]-1,3-thiazol-2-yl}-N-methylmethanamine hydrochloride] | 46 |
| CNCc1cc(S(=O)(=O)c2ccccc2)n(-c2cccnc2F)n1 [Example 79, 1-[1-(2-fluoropyridin-3-yl)-5-(phenylsulfonyl)-1H-pyrazol-3-yl]-N-methylmethanamine] | 190 |
| CNCc1nc(-c2cccnc2F)c(S(=O)(=O)c2cccnc2)s1 [Example 60, 1-[4-(2-fluoropyridin-3-yl)-5-(pyridin-3-ylsulfonyl)-1,3-thiazol-2-yl]-N-methylmethanamine] | 310 |
| CNCc1cc(S(=O)(=O)c2cccnc2)c(-c2cccnc2F)s1 [Example 65, 1-[5-(2-fluoropyridin-3-yl)-4-(pyridin-3-ylsulfonyl)thiophen-2-yl]-N-methylmethanamine] | 250 |
| CNCc1nc(-c2ccccc2F)c(S(=O)(=O)c2cccnc2)s1 [Example 56, 1-[4-(2-fluorophenyl)-5-(pyridin-3-ylsulfonyl)-1,3-thiazol-2-yl]-N-methylmethanamine fumarate] | 240 |
| CNCc1cn(S(=O)(=O)c2ccccc2)c(-c2ccccc2F)n1 [Example 67, 1-[2-(2-fluorophenyl)-1-(phenylsulfonyl)-1H-imidazol-4-yl]-N-methylmethanamine fumarate] | 28 |

Next, values leading:

| IC50 [nM] | Structure (SMILES) |
| --- | --- |
| 130 | CNCc1cc(S(=O)(=O)c2cccnc2)n(-c2ccccc2F)n1 [Example 81, 1-[1-(2-fluorophenyl)-5-(pyridin-3-ylsulfonyl)-1H-pyrazol-3-yl]-N-methylmethanamine] |
| 110 | CNCc1cc(S(=O)(=O)c2ccc(C)nc2)n(-c2ccccc2Cl)n1 [Example 89, 1-{1-(2-chlorophenyl)-5-[(6-methylpyridin-3-yl)sulfonyl]-1H-pyrazol-3-yl}-N-methylmethanamine] |
| 76 | CNCc1cc(S(=O)(=O)c2ccc(C)nc2)n(-c2cccc(F)c2F)n1 [Example 99, 1-{1-(2,3-difluorophenyl)-5-[(6-methylpyridin-3-yl)sulfonyl]-1H-pyrazol-3-yl}-N-methylmethanamine] |
| 86 | CNCc1cc(S(=O)(=O)c2cccnc2)n(-c2ccccc2Cl)n1 [Example 87, 1-[1-(2-chlorophenyl)-5-(pyridin-3-ylsulfonyl)-1H-pyrazol-3-yl]-N-methylmethanamine] |
| 220 | CNCc1cc(S(=O)(=O)c2cccnc2)n(-c2cccc(F)c2F)n1 [Example 98, 1-[1-(2,3-difluorophenyl)-5-(pyridin-3-ylsulfonyl)-1H-pyrazol-3-yl]-N-methylmethanamine] |
| 180 | CNCc1cc(S(=O)(=O)c2cccnc2)n(-c2cccc(F)c2Cl)n1 [Example 113, 1-[1-(2-chloro-3-fluorophenyl)-5-(pyridin-3-ylsulfonyl)-1H-pyrazol-3-yl]-N-methylmethanamine fumarate] |
| 84 | CNCc1cc(S(=O)(=O)c2cccc(C#N)c2)n(-c2ccccc2Cl)n1 [Example 86, 3-({1-(2-chlorophenyl)-3-[(methylamino)methyl]-1H-pyrazol-5-yl}sulfonyl)benzonitrile hydrochloride] |
